The values below come from US9108902B2, “Deuterated 2-amino-3-hydroxypropanoic acid derivatives” (Concert Pharmaceuticals, Inc., priority 2008, dated 2015).

For orientation: Cmax means the maximum level reached in the sampled fluid or tissue.

Data set [1] can be described thus: Pharmacokinetic study in chimps after oral and intravenous co-dosing: plasma levels by LC-MS/MS. In kind it is in vivo. As to conditions: for Cmax / AUC(0-t): plasma, 50 mg, co-administered 1:1; for AUC(0-t): read-out: AUC(0-24). The method, then: (§1) A 1:1 mixture of the two compounds was then prepared containing a final concentration of 1 mg/mL of each compound and the mixture was then sterile filtered through a 0.2-μm filter.
Two chimps (one male and one female) were used in each of the oral and intravenous studies. Animals were fasted overnight prior to administration of compounds. All animals were sedated with ketamine (approximately 10 mg/kg) and/or telazol (approximately 5 mg/kg) prior to dosing. Intravenous administration was achieved by IV infusion of 50 mg of each compound (50 mL total dosing solution) over 30 minutes. Oral administration was achieved by oral gavage of a single 50 mg dose of each compound (50 mL total dosing solution). Blood samples (4.5 mL) were collected from the dosed chimps at various times prior to and after dosing. For intravenous administrations blood samples were collected at 0 min (preinfusion), 15 min, 29.5 min (immediately before the end of the infusion), then 6, 15, 30 and 45 min, and 1, 2, 4, 6, 8, 10, 12 and 24 hr after the infusion is stopped. For oral administrations, blood samples were collected at 0 min (predose), 15 and 30 min, and 1, 1.5, 2, 4, 6, 8, 10 and 12 hr postdose.
Blood samples were placed in tubes containing sodium heparin, mixed and stored on ice until centrifuged. Within 30 minutes of collection, plasma was isolated by centrifuging the blood samples and dividing the resulting plasma (approx. 2 ml) between two 96-deepwell plates. Each plate was sealed and stored at −70° C. until further analysis by LC-MS/MS using an Applied Bio-systems API 4000 mass spectrometer.
(§2) Samples were analyzed by LC-MS/MS using an Applied Bio-systems API 4000 mass spectrometer.

A short description of data set [2]: Pharmacokinetic study in chimps after oral and intravenous co-dosing: unmetabolized compound in urine. As to conditions: both sexes, chimpanzee, 50 mg of each compound co-administered, average of chimps, urine collected 24 hours post-dose, read-out: Unmetabolized Compound Found in Urine. It counts as in vivo. As for the experimental part:
as §1
Two chimps (one male and one female) were used in each of the oral and intravenous studies. Animals were fasted overnight prior to administration of compounds. All animals were sedated with ketamine (approximately 10 mg/kg) and/or telazol (approximately 5 mg/kg) prior to dosing. Intravenous administration was achieved by IV infusion of 50 mg of each compound (50 mL total dosing solution) over 30 minutes. Oral administration was achieved by oral gavage of a single 50 mg dose of each compound (50 mL total dosing solution). Blood samples (4.5 mL) were collected from the dosed chimps at various times prior to and after dosing.
Urine was collected for 24 hours post-dose for each test animal and stored on ice. Total volume was measured and an aliquot was stored at −70° C. until further analysis
as §2

Where [3] appears, read: following either intravenous or oral administration to chimps.
Where [4] appears, read: iv, Chimp 1, IV infusion 50 mg of each compound over 30 min.
Where [5] appears, read: iv, Chimp 2, IV infusion 50 mg of each compound over 30 min.
Setting [6] is: po, Chimp 3, PO gavage single 50 mg dose of each compound.
[7] abbreviates: po, Chimp 4, PO gavage single 50 mg dose of each compound.

SMILES strings stand for the structures. Where two headings read alike, the source gives them in different places.

For the compound `[2H]C([2H])([2H])OC[C@@H](NC(=O)C([2H])([2H])[2H])C(=O)NCc1ccccc1` [Compound 120, (R)-2-(Acetamido-d3)—N-benzyl-3-(methoxy-d3)propanamide], the “AUC compared with lacosamide” value in data set [1] (setting [3]) is on record as “higher”. In data set [1] (setting [3]), the “Cmax compared with lacosamide” value is listed as “higher”. In addition, the Cmax in data set [1] (setting [4]) was determined as 5280 ng/mL; in data set [1] (setting [5]), 1690 ng/mL; in data set [1] (setting [6]), 1540 ng/mL; in data set [1] (setting [7]), 1180 ng/mL. In addition, the AUC(0-t) is 31300 ng·h/mL in data set [1] (setting [4]), 25400 ng·h/mL in data set [1] (setting [5]), 23100 ng·h/mL in data set [1] (setting [6]) and 18000 ng·h/mL in data set [1] (setting [7]). In addition, the values for the concentration at 24 h in data set [2] (IV) and in data set [2] (PO) were 11000 ng/mL and 3200 ng/mL, respectively.
With `COC[C@@H](NC(C)=O)C(=O)NCc1ccccc1` [Lacosamide, 2(R)-acetamido-N-benzyl-3-methoxypropionamide, reference compound], the maximum concentration (Cmax) amounted to 4770 ng/mL in data set [1] (setting [4]), 1560 ng/mL in data set [1] (setting [5]), 1370 ng/mL in data set [1] (setting [6]) and 1090 ng/mL in data set [1] (setting [7]). Also, the AUC(0-t) in data set [1] (setting [4]) was 27600 ng·h/mL; in data set [1] (setting [5]), 23000 ng·h/mL; in data set [1] (setting [6]), 20400 ng·h/mL; in data set [1] (setting [7]) it was 15900 ng·h/mL. Also, the concentration at 24 h in data set [2] (IV) was 9520 ng/mL; in data set [2] (PO) it was 2720 ng/mL.
